Assay results as given in US20060281807A1, “Quassinoid compositions for the treatment of cancer and other proliferative diseases” (Tapestry Pharmaceuticals, Inc., priority 2005, published 2006).
Values after ≈ are worked out from the molar mass of the structure shown. Values joined by “and” are separate entries in the source; they are usually repeats but may differ in a detail not shown here. Equal values may be shown once. Read-outs that look alike come from different tables or passages of the source.

What was measured:
[1] = test system: Colon 38 (murine colon adenocarcinoma); test: Disk diffusion assay, zone of inhibition, Colon 38; zone differentials, potency and product; type: cell-based; set-up: key to C38ΔL1210 / C38ΔCFU: difference of zone of inhibition values, in zone units; details: for zone of inhibition, Colon 38: 1 mg/mL; for Sum: C38ΔL1210 plus C38ΔCFU; for C38ΔL1210: Colon38 vs L1210 leukemia
Procedure, shortened: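 Dissociated Colon 38 cells were plated in soft agar over a hard agar layer; 15 µl of compound dilution dried on a 6.5 mm disk was placed on the plate, and incubation ran 7–10 days. Inhibition zone was measured from disk edge to normal colonies, with the disk diameter = 200 units. Potency = dilution giving 500 units; the product multiplies it by the differentials against L1210 or CFU-GM.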

HCT-116 cells = test: HCT-116 cytotoxicity, viable cell count by trypan blue; type: cell-based, human; details: for IC90/IC50: HCT-116; for IC50 / IC90: Homo sapiens
[2] = Maximum tolerated dose in mice; details: for MTD / MTD at 30 days: mouse, in vivo, iv
Method: Formulations containing 15-O-(3′-hydroxy-3′-isopropyl-4′-methylpentanoyl)bruceolide, 15-(3-isopropyl-4-methyl-2-pentenoyl)-bruceolide, and, for comparative purposes, bruceantin, or peninsularinone were prepared by solubilizing each compound in up to 100 mg/mL of ethanol. These solutions were diluted 1:1 with a stabilizer (Cremophor/propylene glycol). The solutions were then diluted in saline (1:10 minimum).
The maximum tolerated dose (MTD) was determined by a two-stage experiment. In the first stage, between 1 and 10 mg/mL of the formulation was prepared as described above. Next, 0.25 mL of the formulation was injected intravenously into one 20 gram mouse (0.75 mg/mouse). If the animal died within 30 days of injection, a series of subsequent 2-fold dilutions were administered to individual mice until an MTD was defined. […] The second stage of the study involved increasing the number of mice per dose to four, and retesting four dilutions that bracket the MTD from the individual mouse study. The four dilutions were the MTD, a dosage twice the MTD, a dosage ½ the MTD, and a dosage ¼ the MTD.

[3] = Pharmacokinetics, plasma and tumor concentration by HPLC in HCT-116 tumor-bearing SCID mice; type: in vivo; details: for concentration in plasma / concentration in tumor: 2.25 mg/mouse intravenously
Method: Samples from HCT-116 tumor-bearing SCID mice were analyzed via high performance liquid chromatography (HPLC) following administration of inventive compositions. […] At different time points following administration of the inventive compounds (up to 24 hours), individual mice were killed and both blood and tumor samples were removed for HPLC analysis.
In particular, a Waters 2690 Separation Module (Waters Corp., Milford, Mass.) connected to a Waters 2487 Dual wavelength absorbance detector controlled by Millennium32 v3.20 was used for separation, detection, data acquisition, integration and quantitation. An external standard calibration method was used to quantify the inventive compounds in each sample. A Symmetry Shield RP18 5 μm ([…]) analytical column (Waters Corp., Milford, Mass.) was used in the separation of each inventive compound. The column temperature was maintained at 30° C. 25 μl of each sample was injected per analytical run.
The mobile phase consisted of 99% water/1% acetonitrile as the initial gradient composition for the inventive composition. A gradient analysis from deionized water to acetonitrile at a flow rate of 1 mL/min for each tested compound is set forth in Tables 9 and 10. The detection wavelength for the inventive composition was 278 nm, and the retention time was 7.8 minutes.
For the in vivo pharmacokinetic trial, 15 mice were inoculated bilaterally and subcutaneously in the inguinal area with 10^7 tumor cells (by a 16-gauge needle), such as HCT-116 cells or trocar-implanted Colon 38 cells. Each of the compounds 15-O-(3′-hydroxy-3′-isopropyl-4′-methylpentanoyl)bruceolide and 15-(3-isopropyl-4-methyl-2-pentenoyl)-bruceolide was administered intravenously at the MTD in 0.25 mL via the tail vein. Each compound was administered to 10 animals when the tumors reached a measurable size (i.e., 80 to 300 mm^3) at a dose determined from the MTD study. The remaining five animals served as time-point controls. At prescribed times thereafter, one animal per time point was sacrificed, and blood and bilateral tumors were harvested for analysis of drug concentrations. Specifically, mice were sacrificed for pharmacological analysis at 1, 5, 15, 30, 60, 120, 240, 360 minutes and 12 and 24 hours following administration of the inventive compounds.

[4] = no dilution, 15 μl on disk, 6.5 mm = 200 units
[5] = difference between zone of inhibition values
[6] = intravenous, first stage, one mouse per dose
[7] = intravenous, second stage, four mice per dose
[8] = maximum tolerated dose, Dose - 1 Mouse, first stage, one mouse per dose
[9] = maximum tolerated dose, Dose - 4 Mice, second stage, four mice per dose

COC(=O)[C@@]12OC[C@@]34C1[C@@H](OC(=O)CC(O)(C(C)C)C(C)C)C(=O)O[C@@H]3C[C@H]1C(C)=C(O)C(=O)C[C@]1(C)[C@H]4[C@@H](O)[C@@H]2O (some centres unmarked) [15-O-(3′-hydroxy-3′-isopropyl-4′-methylpentanoyl)bruceolide]
zone of inhibition, Colon 38 ([1]; dilution 1/10): >1000 units | zone of inhibition, Colon 38 ([1]; dilution 1/100): 750 units and 600 units and 500 units | zone of inhibition, Colon 38 ([1]; dilution 1/400): 300 units | zone of inhibition, Colon 38 ([1]; dilution 1/1000): 400 units and 250 units | zone of inhibition, Colon 38 [1, 4]: >1000 units | Sum [1]: 750 and 1450 | C38ΔL1210 [1, 5]: 400 and 550 | IC90/IC50 (HCT-116 cells): 35 | IC50 (HCT-116 cells; 72 h, HCT-116, 3 days with compound, viable cells, by interpolation, read-out: IC50): 1.9 ng/mL (≈ 0.0032 µM) | IC90 (HCT-116 cells; 72 h, HCT-116, 3 days with compound, viable cells, by interpolation, read-out: IC90): 67 ng/mL (≈ 0.113 µM) | mice survived the duration of the experiment ([2]; dose of either 1.5 or 0.75 mg/mouse, intravenous (FIG. 6)): 100% | maximum tolerated dose, Dose - 1 Mouse [2, 6]: 3.2 mg/mouse | maximum tolerated dose, Dose - 4 Mice [2, 7]: 1.5 mg/mouse | MTD ([2]; MTD, mice): 60 to 65 mg/kg/day | MTD [2, 8]: 109 mg/kg | MTD [2, 9]: 60 mg/kg | survival of mouse designated for analysis ([3]; 24 hours post administration, 2.25 mg/mouse intravenously (above the MTD)): did not survive | concentration in plasma ([3]; one hour post administration): approximately 7 μg/mL | concentration in tumor ([3]; one hour post administration): approximately 7 μg/mL | concentration in plasma ([3]; six hours post administration): 100 ng/mL | concentration in tumor ([3]; six hours post administration): 800 ng/mL | concentration in plasma ([3]; two hours post administration): 1500 ng/mL | concentration in tumor ([3]; two hours post administration): approximately 4 μg/mL

COC(=O)[C@@]12OC[C@@]34C1[C@@H](OC(=O)C=C(C(C)C)C(C)C)C(=O)O[C@@H]3C[C@H]1C(C)=C(O)C(=O)C[C@]1(C)[C@H]4[C@@H](O)[C@@H]2O (some centres unmarked) [15-O-(3′-isopropyl-4′-methyl-2′-pentenoyl)-bruceolide]
zone of inhibition, Colon 38 ([1]; dilution 1/10): >1000 units | zone of inhibition, Colon 38 ([1]; dilution 1/100): 850 units and 650 units | zone of inhibition, Colon 38 ([1]; dilution 1/1000): 450 units | zone of inhibition, Colon 38 [1, 4]: >1000 units | Sum [1]: 750 | C38ΔL1210 [1, 5]: 300 | C38ΔCFU ([1]; difference between zone of inhibition values, Colon38 vs normal cell CFU-GM): 450 | Product ([1]; potency multiplied by zone differentials): 4500 | IC90/IC50 (HCT-116 cells): 7 | IC50 (HCT-116 cells; HCT-116, 72 h): 1.5 ng/mL (≈ 0.0026 µM) | IC90 (HCT-116 cells; HCT-116, 72 h): 10 ng/mL (≈ 0.0173 µM) | mice survived the duration of the experiment ([2]; dose of 0.1, 0.075, 0.05, or 0.025 mg/mouse, intravenous): 100% | maximum tolerated dose, Dose - 1 Mouse [2, 6]: 0.05 mg/mouse | maximum tolerated dose, Dose - 4 Mice [2, 7]: 0.25 mg/mouse | MTD at 30 days [2, 8]: 2.9 mg/kg | MTD at 30 days [2, 9]: 4 mg/kg | concentration at 0.5 h ([3]; SCID, in vivo, 0.5 hour time point, intravenous (FIG. 8: 0.075 mg/mouse)): 100 ng/mL | concentration at 1 h ([3]; SCID, in vivo, 1 hour time point, intravenous (FIG. 8: 0.075 mg/mouse), below sensitivity of the assay): < 50 ng/mL | level in the tumor, FIG. 8 ([3]; all time points, 0.075 mg/mouse intravenously, detection limit 0.05 μg/mL): below the detection limit | concentration in tumor samples ([3]; entire 24 hour sampling period, intravenous (FIG. 8: 0.075 mg/mouse)): below the sensitivity level of the assay | concentration in vivo (plasma), FIG. 8 ([3]; time points 1 to 24 hours, 0.075 mg/mouse intravenously, below detection limit): < 50 ng/mL
